Experimental data published in patent publication EP4793274A1, “SALT AND CRYSTAL FORM OF KIF18A INHIBITOR COMPOUND, PREPARATION METHOD THEREFOR AND USE THEREOF” (Hubei Bio-Pharmaceutical Industrial Technological Institute …, priority 2023, dated 2025).
Counter-ions that a name gives are not always drawn.

Assays:
[1] = Dynamic solubility at 37 °C in H2O, SGF, FaSSIF and FeSSIF (HPLC concentration, pH of filtrate, XRPD of residual solid); format: physicochemical; conditions: listed as Crystal form A of maleate; for S: solubility: feeding concentration 10 mg/mL; for FC: crystal form change: XRPD of residual solid; for pH: pH of filtrate
Description: 0.82 mL of glacial acetic acid and 1.18 g of NaCl were added to a 100 mL volumetric flask and completely dissolved by addition of purified water.
The solubility of each sample in H2O, SGF, FaSSIF, and FeSSIF was determined at different time points (1 h, 2 h, 4 h, and 24 h). […] 137-156. […] Table C-2. Summary of dynamic solubility test results at 37 °C

[2] = Hygroscopicity by dynamic vapor sorption (DVS); format: physicochemical; conditions: 25 °C/80% RH
Description: Dynamic vapor sorption (DVS) curves were acquired on a DVS IntrInsic from Surface Measurement Systems (SMS). The relative humidity at 25 °C was corrected with the deliquescence points of LiCl, Mg(NO3)2, and KCl. Table A-5. DVS test parameters
The percentage changes in mass of the samples when the humidity changed (0% RH to 95% RH) at a constant temperature of 25 °C were collected. 157-166.

[3] = Solid state stability (XRPD and HPLC purity); format: physicochemical
Excerpt: 167-171. […] Table C-3. Summary of solid state stability evaluation

[4] = Solubility at room temperature in water, SGF and FaSSIF (HPLC concentration, pH of filtrate, XRPD of residual solid); conditions: listed as Crystal form A of maleate; for S: solubility: feeding concentration 1 mg/mL; for pH: pH of filtrate
Description: 100 mg of NaCl and 50 mg of Triton X-100 were weighed into a 50 mL volumetric flask and then completely dissolved by addition of purified water. 816 µL of 1 M hydrochloric acid was added, and the pH was adjusted to 1.8 with 1 M hydrochloric acid or 1 M NaOH solution. The mixed solution was brought to the volume by addition of purified water.
340 mg of anhydrous NaH2PO4 and 620 mg of NaCl were weighed into a 100 mL volumetric flask, and then completely dissolved by addition of purified water. 55.44 µL of a 50% NaOH solution was then added, and the pH was adjusted to 6.5 with 1 M hydrochloric acid or 1 M NaOH solution. The mixed solution was brought to the volume by addition of purified water. Subsequently, 110 mg of SIF powder was weighed into a 50 mL volumetric flask and completely dissolved in the solution described above, and the mixed solution was brought to the volume.
Solids at a feeding concentration of 1 mg/mL (calculated based on free crystal form) were rotationally mixed with corresponding vehicles at room temperature. […] After sampling at each time point, the samples were centrifuged (at 10000 rpm) and filtered (through a 0.22 µm PTFE filter head), the HPLC concentrations and pH values of the filtrates were determined, and the centrifuged solid samples were subjected to XRPD analysis.

[5] = 80 °C/sealed, 1 day, listed as Crystal form A of maleate

For `Cc1cc(-c2cnn(-c3ccc(NS(=O)(=O)CCO)cc3N3CCC4(CC3)CC4)c2)nc(N2CCC(F)(F)CC2)n1` [crystal form A of the maleate], the “S: solubility” value ([1]; FaSSIF, 1 h, 60 min) was 62.7 µg/mL, the “S: solubility” value ([1]; FaSSIF, 2 h, 120 min) was 48.9 µg/mL and the “S: solubility” value ([1]; FaSSIF, 4 h, 240 min) was 39.7 µg/mL. The “S: solubility” value ([1]; FaSSIF, 24 h, 1440 min) was 25.3 µg/mL, the “S: solubility” value ([1]; FeSSIF, 1 h, 60 min) was 202.5 µg/mL and the “S: solubility” value ([1]; FeSSIF, 2 h, 120 min) was 182.4 µg/mL. The “S: solubility” value ([1]; FeSSIF, 4 h, 240 min) was 169.5 µg/mL, the “S: solubility” value ([1]; FeSSIF, 24 h, 1440 min) was 94 µg/mL and the “S: solubility” value ([1]; H2O, 1 h, 60 min) was 13.9 µg/mL. For the same compound, the “S: solubility” value ([1]; H2O, 2 h, 120 min) was 9.8 µg/mL, the “S: solubility” value ([1]; H2O, 4 h, 240 min) was 5.2 µg/mL and the “S: solubility” value ([1]; H2O, 24 h, 1440 min) was 0.9 µg/mL. For the same compound, the “S: solubility” value ([1]; SGF, 1 h, 60 min) was 79.5 µg/mL, the “S: solubility” value ([1]; SGF, 2 h, 120 min) was 71.8 µg/mL and the “S: solubility” value ([1]; SGF, 4 h, 240 min) was 57.9 µg/mL. The “S: solubility” value ([1]; SGF, 24 h, 1440 min) was 11.1 µg/mL, the “FC: crystal form change” value ([1]; FaSSIF, 1 h) was “Yes” and the “FC: crystal form change” value ([1]; FaSSIF, 2 h) was “Yes”. For the same compound, the “FC: crystal form change” value ([1]; FaSSIF, 4 h) was “Yes”, the “FC: crystal form change” value ([1]; FaSSIF, 24 h) was “Yes” and the “FC: crystal form change” value ([1]; FeSSIF, 1 h) was “Yes”. The “FC: crystal form change” value ([1]; FeSSIF, 2 h) was “Yes”, the “FC: crystal form change” value ([1]; FeSSIF, 4 h) was “Yes” and the “FC: crystal form change” value ([1]; FeSSIF, 24 h) was “Yes”. The “FC: crystal form change” value ([1]; H2O, 1 h) was “Yes”, the “FC: crystal form change” value ([1]; H2O, 2 h) was “Yes” and the “FC: crystal form change” value ([1]; H2O, 4 h) was “Yes”. The “FC: crystal form change” value ([1]; H2O, 24 h) was “Yes”, the “FC: crystal form change” value ([1]; SGF, 1 h) was “Yes” and the “FC: crystal form change” value ([1]; SGF, 2 h) was “Yes”. For the same compound, the “FC: crystal form change” value ([1]; SGF, 4 h) was “Yes”, the “FC: crystal form change” value ([1]; SGF, 24 h) was “Yes” and the pH ([1]; FaSSIF, 1 h) was 2.94. The pH ([1]; FaSSIF, 2 h) was 2.90, the pH ([1]; FaSSIF, 4 h) was 2.90 and the pH ([1]; FaSSIF, 24 h) was 2.90. It also gave a pH ([1]; FeSSIF, 1 h) of 4.66, a pH ([1]; FeSSIF, 2 h) of 4.68 and a pH ([1]; FeSSIF, 4 h) of 4.67. For the same compound, the pH ([1]; FeSSIF, 24 h) was 4.70, the pH ([1]; H2O, 1 h) was 2.00 and the pH ([1]; H2O, 2 h) was 2.05. The pH ([1]; H2O, 4 h) was 1.98, the pH ([1]; H2O, 24 h) was 2.03 and the pH ([1]; SGF, 1 h) was 1.55. For the same compound, the pH ([1]; SGF, 2 h) was 1.57, the pH ([1]; SGF, 4 h) was 1.54 and the pH ([1]; SGF, 24 h) was 1.58. For the same compound, the vapor sorption values [2] was 0.235%, the “HPLC results Relative to starting (%)” value ([3]; 25 °C/60% RH/open, 1 week) was 100.0% and the “HPLC results Purity (area%)” value ([3]; 25 °C/60% RH/open, 1 week, listed as Crystal form A of maleate) was 98.26 area%. For the same compound, the “HPLC results Relative to starting (%)” value ([3]; 40 °C/75% RH/open, 1 week) was 100.0%, the “HPLC results Purity (area%)” value ([3]; 40 °C/75% RH/open, 1 week, listed as Crystal form A of maleate) was 98.30 area% and the “HPLC results Purity (area%)” value [3, 5] was 98.08 area%. The “HPLC results Relative to starting (%)” value [3, 5] was 99.8%, the “HPLC results Purity (area%)” value ([3]; Starting, listed as Crystal form A of maleate) was 98.29 area% and the Crystal form ([3]; XRPD after 25 °C/60% RH/open, 1 week, listed as Crystal form A of maleate) was “Crystal form A of maleate”. For the same compound, the Crystal form ([3]; XRPD after 40 °C/75% RH/open, 1 week, listed as Crystal form A of maleate) was “Crystal form A of maleate”, the Crystal form ([3]; XRPD after 80 °C/sealed, 1 day, listed as Crystal form A of maleate) was “Crystal form A of maleate” and the “S: solubility” value ([4]; FaSSIF, 2 h, 120 min) was 126.8 µg/mL. The “S: solubility” value ([4]; FaSSIF, 24 h, 1440 min) was 47.9 µg/mL, the “S: solubility” value ([4]; H2O, 24 h, 1440 min) was 0.3 µg/mL and the “S: solubility” value ([4]; SGF, 2 h, 120 min) was 51.2 µg/mL. The “S: solubility” value ([4]; SGF, 24 h, 1440 min) was 36.6 µg/mL, the pH ([4]; FaSSIF, 2 h) was 6.4 and the pH ([4]; FaSSIF, 24 h) was 6.2.
